Square brackets hold non-standard residues; d marks the D form. Peptide text beside a SMILES is read from it.
Key:
[1] = molecular target: T1, ferroportin fused to green fluorescent protein (ECR293/Fpn-GFP cells) (Mus musculus, UniProt Q9JHI9); assay: Flow cytometry of ferroportin-GFP internalization and degradation in ECR293/Fpn-GFP cells; assay type: cell-based; settings: concentration eliciting 50% of maximal loss of fluorescence generated by reference Hep25; 24 hours; read-out: EC50 (the source's name)
T1 sequence (Q9JHI9 1-570): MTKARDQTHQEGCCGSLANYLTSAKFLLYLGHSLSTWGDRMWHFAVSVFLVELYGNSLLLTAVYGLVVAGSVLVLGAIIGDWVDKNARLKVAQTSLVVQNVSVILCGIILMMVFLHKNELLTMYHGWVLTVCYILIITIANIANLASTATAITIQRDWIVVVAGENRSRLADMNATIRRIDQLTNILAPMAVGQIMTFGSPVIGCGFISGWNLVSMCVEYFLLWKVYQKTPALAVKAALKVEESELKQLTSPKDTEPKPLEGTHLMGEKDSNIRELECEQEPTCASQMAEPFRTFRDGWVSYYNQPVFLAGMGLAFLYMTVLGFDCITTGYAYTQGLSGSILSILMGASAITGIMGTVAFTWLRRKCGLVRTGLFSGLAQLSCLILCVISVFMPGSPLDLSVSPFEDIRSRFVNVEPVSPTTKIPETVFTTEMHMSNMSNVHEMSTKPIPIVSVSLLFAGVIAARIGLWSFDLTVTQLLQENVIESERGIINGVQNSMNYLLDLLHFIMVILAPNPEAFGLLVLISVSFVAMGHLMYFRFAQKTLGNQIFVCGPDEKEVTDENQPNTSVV
Method: In vitro activity may be measured by the dose-dependent loss of fluorescence of cells engineered to display ferroportin fused to green fluorescent protein as in Nemeth et al. (2006) Blood 107:328-33. […]
FLOW CYTOMETRY. The activity of peptides of the present invention was measured by flow cytometry as previously described. See Nemeth et al. (2006) Blood 107:328-333, which is herein incorporated by reference. ECR293/Fpn-GFP, a cell line stably transfected with a ponasterone-inducible ferroportin construct tagged at the C-terminus with green fluorescent protein was used. See Nemeth et al. (2004) Science 306:2090-2093, which is herein incorporated by reference. Briefly, the cells were plated on poly-D-lysine coated plates in the presence of 20 μM FAC, with or without 10 μM ponasterone. After 24 hours, ponasterone was washed off, and cells were treated with peptides for 24 hours. Cells were then trypsinized and resuspended at 1×10^6 cells/ml, and the intensity of green fluorescence was analyzed by flow cytometry. […] Cells not induced with ponasterone to express Fpn-GFP were used to establish a gate to exclude background fluorescence. Cells induced with ponasterone, but not treated with any peptides, were used as the positive control. Each peptide was tested over the range of concentrations (0, 0.01, 0.03, 0.1, 0.3, 1, 3 and 10 μM). Each peptide treatment was repeated independently 3 to 6 times.

C57/B16J mice = assay: Serum iron assay in mice after peptide administration; assay type: in vivo; settings: i.p., 4 hours
Method: Serum iron assay. The decrease in serum iron after peptide administration is the principal measure of hepcidin activity. Thus, as provided herein, the hepcidin activity of selected peptides of the present invention were assayed in vivo by measuring serum iron in test subjects. […] Two weeks before the experiment, the mice were switched to a diet containing about 2-4 ppm iron (Harlan Teklad, Indianapolis, Ind.) in order to suppress endogenous hepcidin. Peptide stocks were diluted to desired concentrations in sterile phosphate buffered saline (PBS) or other diluents as described next. […] Mice were sacrificed 4 hours later, blood was collected by cardiac puncture, and serum was separated using MICROTAINER tubes (Becton Dickinson, Franklin Lakes, N.J.). Serum iron was determined by using a colorimetric assay (Diagnostic Chemicals, Oxford, Conn.), which was modified for the microplate format so that 10 μl serum was used per measurement. The results were expressed as the percentage of decrease in serum iron when compared with the average value of serum iron levels in PBS-treated mice.

Row | Structure (SMILES) | DC50 [1] [nM] | serum iron (C57/B16J mice; 50 μg per mouse in PBS, vs PBS) | serum iron (C57/B16J mice; 20 nmoles in PBS) | serum iron (C57/B16J mice; 200 nmoles in PBS)
1 | CC[C@@H](C)[C@@H](NC(=O)[C@H](N)Cc1ccccc1)C(=O)N[C@H](CS)C(=O)N[C@@H](C(=O)N1CCC[C@@H]1C(=O)N[C@H](Cc1ccccc1)C(=O)N[C@H](Cc1c[nH]cn1)C(=O)N[C@@H](C(=O)N[C@H](CC(=O)O)C(N)=O)[C@H](C)O)[C@H](C)CC [Pr12] | 900 | significant decrease in serum iron after 4 hours |  | 
2 | CC[C@@H](C)[C@@H](NC(=O)[C@H](N)Cc1ccccc1)C(=O)N[C@H](CS)C(=O)N[C@@H](C(=O)N1CCC[C@@H]1C(=O)N[C@H](Cc1ccccc1)C(=O)N[C@H](Cc1c[nH]cn1)C(N)=O)[C@H](C)CC [riHep7ΔDT] (H-[dF][dI][dC][dI][dP][dF][dH]-NH2; N-terminus assumed) | 150 |  | slightly but not significantly reduced serum iron concentrations | serum iron concentrations significantly lower than those achieved after injection of PBS

— patent US20130203662A1, “Mini-Hepcidin Peptides and Methods of Using Thereof” (priority 2008, published 2013)
